# How the values were obtained:
# Assay in all cases: radiometric filter-binding kinase assay, Kinase HotSpot
# Conditions in all cases: compound 0.5 µM; ATP 10 µM
# ABL2 (human) = ABL2 (human) (UniProt P42684)
# ACVRL1 (human) = ACVRL1 (human) (UniProt P37023)
# CAMK1D (human) = CAMK1D (human) (UniProt Q8IU85)
# CDC42BPB (human) = CDC42BPB (human) (UniProt Q9Y5S2)
# CDK7 CCNH MNAT1 (human) = CDK7 CCNH MNAT1 (human) (UniProt P50613+P51948+P51946)
# CDK9 CCNK (human) = CDK9 CCNK (human) (UniProt O75909+P50750)
# CDK9 CCNT1 (human) = CDK9 CCNT1 (human) (UniProt P50750+O60563)
# CSNK1G3 (human) = CSNK1G3 (human) (UniProt Q9Y6M4)
# DAPK2 (human) = DAPK2 (human) (UniProt Q9UIK4)
# DSTYK (human) = DSTYK (human) (UniProt Q6XUX3)
# DYRK1B (human) = DYRK1B (human) (UniProt Q9Y463)
# DYRK4 (human) = DYRK4 (human) (UniProt Q9NR20)
# EPHA6 (human) = EPHA6 (human) (UniProt Q9UF33)
# FGFR4 (human) = FGFR4 (human) (UniProt P22455)
# FLT3 (human) = FLT3 (human) (UniProt P36888)
# GRK5 (human) = GRK5 (human) (UniProt P34947)
# GSK3B (human) = GSK3B (human) (UniProt P49841)
# JAK2 JH1 JH2 (human) = JAK2 JH1 JH2 (human) (UniProt O60674)
# JAK3 JH1 JH2 (human) = JAK3 JH1 JH2 (human) (UniProt P52333)
# LIMK1 (human) = LIMK1 (human) (UniProt P53667)
# MAP2K1 (human) = MAP2K1 (human) (UniProt Q02750)
# MAP3K10 (human) = MAP3K10 (human) (UniProt Q02779)
# MAPKAPK5 (human) = MAPKAPK5 (human) (UniProt Q8IW41)
# MARK1 (human) = MARK1 (human) (UniProt Q9P0L2)
# MERTK (human) = MERTK (human) (UniProt Q12866)
# NTRK2 (human) = NTRK2 (human) (UniProt Q16620)
# NUAK1 (human) = NUAK1 (human) (UniProt O60285)
# PAK1 (human) = PAK1 (human) (UniProt Q13153)
# PAK2 (human) = PAK2 (human) (UniProt Q13177)
# PBK (human) = PBK (human) (UniProt Q96KB5)
# PDPK1 (human) = PDPK1 (human) (UniProt O15530)
# PLK3 (human) = PLK3 (human) (UniProt Q9H4B4)
# PNCK (human) = PNCK (human) (UniProt Q6P2M8)
# PRKCD (human) = PRKCD (human) (UniProt Q05655)
# PRKCE (human) = PRKCE (human) (UniProt Q02156)
# PRKG2 (human) = PRKG2 (human) (UniProt Q13237)
# SRPK1 (human) = SRPK1 (human) (UniProt Q96SB4)
# TAOK2 (human) = TAOK2 (human) (UniProt Q9UL54)
# TGFBR2 (human) = TGFBR2 (human) (UniProt P37173)
# [1] = molecular target: TYK2 JH1 catalytic (human) (UniProt P29597)
# YES1 (human) = YES1 (human) (UniProt P07947)
# Sequence of YES1 (human) (P07947 whole entry, looked up): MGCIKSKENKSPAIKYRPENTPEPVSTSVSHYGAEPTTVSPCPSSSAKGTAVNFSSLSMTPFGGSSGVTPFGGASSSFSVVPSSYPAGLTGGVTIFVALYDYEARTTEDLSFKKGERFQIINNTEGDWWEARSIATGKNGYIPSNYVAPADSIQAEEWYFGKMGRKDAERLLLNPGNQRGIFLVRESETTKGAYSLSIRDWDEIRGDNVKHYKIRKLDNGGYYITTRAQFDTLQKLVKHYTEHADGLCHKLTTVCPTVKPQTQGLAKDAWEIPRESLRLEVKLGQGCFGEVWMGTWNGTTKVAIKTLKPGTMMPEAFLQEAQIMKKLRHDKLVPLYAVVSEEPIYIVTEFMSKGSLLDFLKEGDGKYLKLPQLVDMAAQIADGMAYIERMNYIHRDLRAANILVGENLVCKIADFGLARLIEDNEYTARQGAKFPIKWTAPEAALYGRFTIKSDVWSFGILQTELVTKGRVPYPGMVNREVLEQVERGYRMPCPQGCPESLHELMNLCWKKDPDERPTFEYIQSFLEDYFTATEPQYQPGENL
# Sequence of MERTK (human) (Q12866 whole entry, looked up): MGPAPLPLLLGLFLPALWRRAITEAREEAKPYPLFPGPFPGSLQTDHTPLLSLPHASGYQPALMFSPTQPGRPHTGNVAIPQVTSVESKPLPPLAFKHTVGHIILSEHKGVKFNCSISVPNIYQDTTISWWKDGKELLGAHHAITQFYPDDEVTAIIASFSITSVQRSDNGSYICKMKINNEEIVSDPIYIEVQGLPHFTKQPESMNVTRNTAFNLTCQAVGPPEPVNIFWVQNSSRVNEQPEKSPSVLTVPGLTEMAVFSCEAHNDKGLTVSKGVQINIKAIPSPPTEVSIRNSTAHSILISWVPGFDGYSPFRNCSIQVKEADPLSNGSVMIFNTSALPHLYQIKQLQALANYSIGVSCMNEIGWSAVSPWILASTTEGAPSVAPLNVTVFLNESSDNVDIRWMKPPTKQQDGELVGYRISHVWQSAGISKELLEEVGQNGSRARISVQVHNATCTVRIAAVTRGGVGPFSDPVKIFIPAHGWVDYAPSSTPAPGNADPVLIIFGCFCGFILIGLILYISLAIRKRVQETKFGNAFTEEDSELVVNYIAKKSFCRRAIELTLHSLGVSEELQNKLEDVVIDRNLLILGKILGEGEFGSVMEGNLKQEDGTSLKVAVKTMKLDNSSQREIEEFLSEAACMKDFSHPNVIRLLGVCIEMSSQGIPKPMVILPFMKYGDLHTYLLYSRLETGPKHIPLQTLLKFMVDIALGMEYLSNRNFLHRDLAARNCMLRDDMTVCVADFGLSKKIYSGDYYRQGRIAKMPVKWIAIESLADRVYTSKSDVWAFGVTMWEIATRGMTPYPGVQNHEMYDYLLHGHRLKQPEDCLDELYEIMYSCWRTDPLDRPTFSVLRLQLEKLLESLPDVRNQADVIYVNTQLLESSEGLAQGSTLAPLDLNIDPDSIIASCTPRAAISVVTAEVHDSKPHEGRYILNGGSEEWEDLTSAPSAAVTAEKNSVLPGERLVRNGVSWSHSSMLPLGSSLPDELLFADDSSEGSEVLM
# Sequence of CDC42BPB (human) (Q9Y5S2 whole entry, looked up): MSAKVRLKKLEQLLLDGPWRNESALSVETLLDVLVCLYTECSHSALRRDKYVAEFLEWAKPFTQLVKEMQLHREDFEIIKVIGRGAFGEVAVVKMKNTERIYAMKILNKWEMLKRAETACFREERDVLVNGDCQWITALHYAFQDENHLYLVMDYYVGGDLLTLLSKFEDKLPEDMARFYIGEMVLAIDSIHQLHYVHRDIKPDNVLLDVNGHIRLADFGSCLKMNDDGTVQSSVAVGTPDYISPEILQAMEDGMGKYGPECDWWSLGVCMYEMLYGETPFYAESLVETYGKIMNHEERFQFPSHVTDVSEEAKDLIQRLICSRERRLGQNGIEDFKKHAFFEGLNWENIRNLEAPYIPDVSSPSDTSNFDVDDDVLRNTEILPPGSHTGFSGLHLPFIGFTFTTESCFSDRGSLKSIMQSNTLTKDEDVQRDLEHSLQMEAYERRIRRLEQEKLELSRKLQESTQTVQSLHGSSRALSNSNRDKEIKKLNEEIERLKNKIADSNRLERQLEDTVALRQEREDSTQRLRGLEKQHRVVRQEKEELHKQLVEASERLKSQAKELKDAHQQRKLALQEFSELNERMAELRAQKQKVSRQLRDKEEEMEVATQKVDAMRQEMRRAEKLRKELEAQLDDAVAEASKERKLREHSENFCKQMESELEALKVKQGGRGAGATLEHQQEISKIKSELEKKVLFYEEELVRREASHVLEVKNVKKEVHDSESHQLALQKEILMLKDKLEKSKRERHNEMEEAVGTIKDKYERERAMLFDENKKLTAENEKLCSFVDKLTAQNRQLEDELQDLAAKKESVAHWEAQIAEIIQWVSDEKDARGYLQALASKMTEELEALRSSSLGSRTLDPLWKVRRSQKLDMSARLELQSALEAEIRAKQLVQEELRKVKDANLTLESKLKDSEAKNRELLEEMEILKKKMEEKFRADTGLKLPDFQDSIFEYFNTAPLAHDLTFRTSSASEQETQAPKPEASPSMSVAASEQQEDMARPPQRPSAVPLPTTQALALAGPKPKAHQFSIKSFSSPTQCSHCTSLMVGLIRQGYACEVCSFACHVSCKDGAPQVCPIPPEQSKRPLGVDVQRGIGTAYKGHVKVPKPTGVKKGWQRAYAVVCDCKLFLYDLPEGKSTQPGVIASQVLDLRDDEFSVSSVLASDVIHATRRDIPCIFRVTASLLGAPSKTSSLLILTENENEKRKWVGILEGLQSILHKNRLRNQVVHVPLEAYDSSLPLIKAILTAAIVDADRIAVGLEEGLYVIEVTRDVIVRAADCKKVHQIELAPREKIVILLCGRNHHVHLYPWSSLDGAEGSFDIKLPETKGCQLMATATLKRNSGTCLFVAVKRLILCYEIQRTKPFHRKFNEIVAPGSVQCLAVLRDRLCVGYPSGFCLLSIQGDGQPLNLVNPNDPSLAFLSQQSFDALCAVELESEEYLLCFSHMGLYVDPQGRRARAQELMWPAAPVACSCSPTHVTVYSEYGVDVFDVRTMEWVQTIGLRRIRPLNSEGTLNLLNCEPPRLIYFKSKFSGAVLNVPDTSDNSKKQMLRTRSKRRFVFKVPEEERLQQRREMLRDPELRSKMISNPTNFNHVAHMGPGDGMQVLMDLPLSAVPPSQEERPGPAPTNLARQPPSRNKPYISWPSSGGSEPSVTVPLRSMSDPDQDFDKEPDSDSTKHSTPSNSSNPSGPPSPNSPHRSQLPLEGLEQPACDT
# Sequence of JAK2 JH1 JH2 (human) (O60674 whole entry, looked up): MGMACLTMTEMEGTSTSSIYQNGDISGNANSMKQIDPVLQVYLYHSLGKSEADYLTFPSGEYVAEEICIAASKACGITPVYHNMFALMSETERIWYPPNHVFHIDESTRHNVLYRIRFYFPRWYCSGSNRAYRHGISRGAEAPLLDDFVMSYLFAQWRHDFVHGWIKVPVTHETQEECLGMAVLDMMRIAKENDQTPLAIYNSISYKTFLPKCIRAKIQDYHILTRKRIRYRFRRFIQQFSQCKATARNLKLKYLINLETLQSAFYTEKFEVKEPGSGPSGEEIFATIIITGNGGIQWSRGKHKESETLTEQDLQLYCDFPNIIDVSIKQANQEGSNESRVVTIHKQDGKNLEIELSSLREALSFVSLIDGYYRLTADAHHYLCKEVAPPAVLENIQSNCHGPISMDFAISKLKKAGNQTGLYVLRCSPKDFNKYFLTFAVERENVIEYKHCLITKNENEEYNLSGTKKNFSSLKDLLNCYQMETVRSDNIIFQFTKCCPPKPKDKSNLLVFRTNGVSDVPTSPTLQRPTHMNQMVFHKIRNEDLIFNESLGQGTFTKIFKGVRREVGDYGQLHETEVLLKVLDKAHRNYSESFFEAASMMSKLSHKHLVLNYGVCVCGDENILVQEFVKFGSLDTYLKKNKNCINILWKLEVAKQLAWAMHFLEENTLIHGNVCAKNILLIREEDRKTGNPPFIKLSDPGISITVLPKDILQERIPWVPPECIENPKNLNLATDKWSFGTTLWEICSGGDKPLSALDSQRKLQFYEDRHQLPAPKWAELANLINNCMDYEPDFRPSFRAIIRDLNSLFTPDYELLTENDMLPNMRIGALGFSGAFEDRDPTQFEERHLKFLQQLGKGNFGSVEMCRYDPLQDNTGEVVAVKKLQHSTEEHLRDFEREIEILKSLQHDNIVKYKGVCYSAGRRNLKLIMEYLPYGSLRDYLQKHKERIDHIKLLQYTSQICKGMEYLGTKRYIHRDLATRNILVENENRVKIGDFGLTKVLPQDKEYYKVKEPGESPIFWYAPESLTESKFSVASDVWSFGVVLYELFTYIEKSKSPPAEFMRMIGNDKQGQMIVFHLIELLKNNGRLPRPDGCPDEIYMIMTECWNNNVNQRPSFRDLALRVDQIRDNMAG
# Sequence of DYRK4 (human) (Q9NR20 whole entry, looked up): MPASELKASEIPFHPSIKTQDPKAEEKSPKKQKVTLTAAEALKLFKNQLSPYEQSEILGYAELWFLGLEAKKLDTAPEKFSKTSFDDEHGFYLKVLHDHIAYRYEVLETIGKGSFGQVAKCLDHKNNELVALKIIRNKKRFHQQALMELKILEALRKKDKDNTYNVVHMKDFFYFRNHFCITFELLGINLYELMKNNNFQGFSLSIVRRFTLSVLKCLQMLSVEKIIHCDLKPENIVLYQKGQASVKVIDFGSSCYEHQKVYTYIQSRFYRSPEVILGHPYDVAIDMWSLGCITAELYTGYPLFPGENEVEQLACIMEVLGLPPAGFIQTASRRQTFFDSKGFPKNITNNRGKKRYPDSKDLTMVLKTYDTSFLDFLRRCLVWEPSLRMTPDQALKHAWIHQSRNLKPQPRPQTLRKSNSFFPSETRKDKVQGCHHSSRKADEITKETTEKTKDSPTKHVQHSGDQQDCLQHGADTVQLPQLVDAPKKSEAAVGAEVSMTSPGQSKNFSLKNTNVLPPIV
smiles,measurement,setting,value
O=C1NC(=O)/C(=C/c2ccc3c(c2)OC(F)(F)O3)S1,residual activity,ABL2 (human),96%
same,residual activity,ACVRL1 (human),97.1%
same,residual activity,CAMK1D (human),83.2%
same,residual activity,CDC42BPB (human),96.4%
same,residual activity,CDK7 CCNH MNAT1 (human),98.3%
same,residual activity,CDK9 CCNK (human),93.5%
same,residual activity,CDK9 CCNT1 (human),98.7%
same,residual activity,CSNK1G3 (human),91.4%
same,residual activity,DAPK2 (human),105%
same,residual activity,DSTYK (human),89.3%
same,residual activity,DYRK1B (human),101%
same,residual activity,DYRK4 (human),97.7%
same,residual activity,EPHA6 (human),83.1%
same,residual activity,FGFR4 (human),91%
same,residual activity,FLT3 (human),92.9%
same,residual activity,GRK5 (human),105%
same,residual activity,GSK3B (human),92.3%
same,residual activity,JAK2 JH1 JH2 (human),92.9%
same,residual activity,JAK3 JH1 JH2 (human),98.6%
same,residual activity,LIMK1 (human),96.4%
same,residual activity,MAP2K1 (human),95.6%
same,residual activity,MAP3K10 (human),91.2%
same,residual activity,MAPKAPK5 (human),98.2%
same,residual activity,MARK1 (human),97.2%
same,residual activity,MERTK (human),94.5%
same,residual activity,NTRK2 (human),91.9%
same,residual activity,NUAK1 (human),91.8%
same,residual activity,PAK1 (human),93.3%
same,residual activity,PAK2 (human),99.9%
same,residual activity,PBK (human),91.8%
same,residual activity,PDPK1 (human),100%
same,residual activity,PLK3 (human),92.4%
same,residual activity,PNCK (human),96%
same,residual activity,PRKCD (human),93.2%
same,residual activity,PRKCE (human),103%
same,residual activity,PRKG2 (human),104%
same,residual activity,SRPK1 (human),105%
same,residual activity,TAOK2 (human),96.9%
same,residual activity,TGFBR2 (human),107%
same,residual activity,[1],88.4%
same,residual activity,YES1 (human),87.9%
N#C/C(=C(/N)Sc1ccc(N)cc1)c1ccccc1C(F)(F)F,residual activity,ABL2 (human),101%
same,residual activity,ACVRL1 (human),106%
same,residual activity,CAMK1D (human),129%
same,residual activity,CDC42BPB (human),104%
same,residual activity,CDK7 CCNH MNAT1 (human),100%
same,residual activity,CDK9 CCNK (human),98%
same,residual activity,CDK9 CCNT1 (human),97.7%
same,residual activity,CSNK1G3 (human),103%
same,residual activity,DAPK2 (human),112%
same,residual activity,DSTYK (human),113%
same,residual activity,DYRK1B (human),99.6%
same,residual activity,DYRK4 (human),92.4%
same,residual activity,EPHA6 (human),92.3%
same,residual activity,FGFR4 (human),108%
same,residual activity,FLT3 (human),107%
same,residual activity,GRK5 (human),102%
same,residual activity,GSK3B (human),102%
same,residual activity,JAK2 JH1 JH2 (human),98.7%
same,residual activity,JAK3 JH1 JH2 (human),101%
same,residual activity,LIMK1 (human),98.7%
same,residual activity,MAP2K1 (human),97.9%
same,residual activity,MAP3K10 (human),88.1%
same,residual activity,MAPKAPK5 (human),89.9%
same,residual activity,MARK1 (human),99.9%
same,residual activity,MERTK (human),80.7%
same,residual activity,NTRK2 (human),103%
same,residual activity,NUAK1 (human),95.9%
same,residual activity,PAK1 (human),94.3%
same,residual activity,PAK2 (human),98%
same,residual activity,PBK (human),95.3%
same,residual activity,PDPK1 (human),103%
same,residual activity,PLK3 (human),96.9%
same,residual activity,PNCK (human),98.9%
same,residual activity,PRKCD (human),97.5%
same,residual activity,PRKCE (human),104%
same,residual activity,PRKG2 (human),113%
same,residual activity,SRPK1 (human),96.5%
same,residual activity,TAOK2 (human),101%
same,residual activity,TGFBR2 (human),113%
same,residual activity,[1],102%
same,residual activity,YES1 (human),111%
Cc1[nH]c(/C=C2\C(=O)Nc3ccc(S(=O)(=O)N(C)c4cccc(Cl)c4)cc32)c(C)c1C(=O)N1CCN(C)CC1,residual activity,ABL2 (human),73.2%
same,residual activity,ACVRL1 (human),103%
same,residual activity,CAMK1D (human),138%
same,residual activity,CDC42BPB (human),113%
same,residual activity,CDK7 CCNH MNAT1 (human),59.7%
same,residual activity,CDK9 CCNK (human),90.2%
same,residual activity,CDK9 CCNT1 (human),91%
same,residual activity,CSNK1G3 (human),93.3%
same,residual activity,DAPK2 (human),111%
same,residual activity,DSTYK (human),97.2%
same,residual activity,DYRK1B (human),98.9%
same,residual activity,DYRK4 (human),96.1%
same,residual activity,EPHA6 (human),24%
same,residual activity,FGFR4 (human),104%
same,residual activity,FLT3 (human),26.5%
same,residual activity,GRK5 (human),98.9%
same,residual activity,GSK3B (human),96.1%
same,residual activity,JAK2 JH1 JH2 (human),40.6%
same,residual activity,JAK3 JH1 JH2 (human),47%
same,residual activity,LIMK1 (human),87.9%
same,residual activity,MAP2K1 (human),89.3%
same,residual activity,MAP3K10 (human),74%
same,residual activity,MAPKAPK5 (human),77.6%
same,residual activity,MARK1 (human),62.5%
same,residual activity,MERTK (human),21.4%
same,residual activity,NTRK2 (human),35.7%
same,residual activity,NUAK1 (human),15.9%
same,residual activity,PAK1 (human),87.7%
same,residual activity,PAK2 (human),96.2%
same,residual activity,PBK (human),104%
same,residual activity,PDPK1 (human),114%
same,residual activity,PLK3 (human),95%
same,residual activity,PNCK (human),101%
same,residual activity,PRKCD (human),95.3%
same,residual activity,PRKCE (human),99.1%
same,residual activity,PRKG2 (human),104%
same,residual activity,SRPK1 (human),77.3%
same,residual activity,TAOK2 (human),21.9%
same,residual activity,TGFBR2 (human),127%
same,residual activity,[1],75.1%
same,residual activity,YES1 (human),27%
CNC(=O)c1cc(Oc2ccc(NC(=O)Nc3ccc(Cl)c(C(F)(F)F)c3)cc2)ccn1,residual activity,ABL2 (human),99.4%
same,residual activity,ACVRL1 (human),104%
same,residual activity,CAMK1D (human),103%
same,residual activity,CDC42BPB (human),102%
same,residual activity,CDK7 CCNH MNAT1 (human),102%
same,residual activity,CDK9 CCNK (human),101%
same,residual activity,CDK9 CCNT1 (human),98.3%
same,residual activity,CSNK1G3 (human),99.8%
same,residual activity,DAPK2 (human),111%
same,residual activity,DSTYK (human),97.7%
same,residual activity,DYRK1B (human),93.2%
same,residual activity,DYRK4 (human),105%
same,residual activity,EPHA6 (human),42%
same,residual activity,FGFR4 (human),104%
same,residual activity,FLT3 (human),9.22%
same,residual activity,GRK5 (human),97.8%
same,residual activity,GSK3B (human),101%
same,residual activity,JAK2 JH1 JH2 (human),98.2%
same,residual activity,JAK3 JH1 JH2 (human),99.4%
same,residual activity,LIMK1 (human),76.8%
same,residual activity,MAP2K1 (human),102%
same,residual activity,MAP3K10 (human),104%
same,residual activity,MAPKAPK5 (human),95.8%
same,residual activity,MARK1 (human),80.3%
same,residual activity,MERTK (human),88.2%
same,residual activity,NTRK2 (human),90%
same,residual activity,NUAK1 (human),103%
same,residual activity,PAK1 (human),108%
same,residual activity,PAK2 (human),101%
same,residual activity,PBK (human),97.5%
same,residual activity,PDPK1 (human),95.8%
same,residual activity,PLK3 (human),99.3%
same,residual activity,PNCK (human),94.7%
same,residual activity,PRKCD (human),104%
same,residual activity,PRKCE (human),96.4%
same,residual activity,PRKG2 (human),90.9%
same,residual activity,SRPK1 (human),98.6%
same,residual activity,TAOK2 (human),36.9%
same,residual activity,TGFBR2 (human),99.9%
same,residual activity,[1],98.9%
same,residual activity,YES1 (human),82.8%
